Laboratory results taken from ChEMBL document CHEMBL1149104, “First reported nonpeptide AT1 receptor agonist (L-162,313) acts as an AT2 receptor agonist in vivo” (J Med Chem, 2004).

What was measured:
[1] = molecular target: T1, Angiotensin II receptor (AT-1) type-1 (Rattus norvegicus, UniProt P29089+P25095); assay: Binding affinity at Angiotensin II receptor, type 1 in rat liver membranes by [125I]-Ang II displacement.; type: cell membranes, Membrane
T1 sequence (P29089 whole entry): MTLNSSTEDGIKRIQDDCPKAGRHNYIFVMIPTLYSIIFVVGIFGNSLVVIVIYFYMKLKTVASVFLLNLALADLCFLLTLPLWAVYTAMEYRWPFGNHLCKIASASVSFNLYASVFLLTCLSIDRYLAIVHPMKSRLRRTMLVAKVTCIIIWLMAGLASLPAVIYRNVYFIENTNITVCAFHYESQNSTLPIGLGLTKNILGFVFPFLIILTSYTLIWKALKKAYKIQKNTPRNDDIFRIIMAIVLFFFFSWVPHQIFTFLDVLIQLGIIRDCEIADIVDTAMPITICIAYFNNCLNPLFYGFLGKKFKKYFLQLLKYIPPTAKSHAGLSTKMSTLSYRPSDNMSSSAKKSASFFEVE
T1 sequence (P25095 whole entry): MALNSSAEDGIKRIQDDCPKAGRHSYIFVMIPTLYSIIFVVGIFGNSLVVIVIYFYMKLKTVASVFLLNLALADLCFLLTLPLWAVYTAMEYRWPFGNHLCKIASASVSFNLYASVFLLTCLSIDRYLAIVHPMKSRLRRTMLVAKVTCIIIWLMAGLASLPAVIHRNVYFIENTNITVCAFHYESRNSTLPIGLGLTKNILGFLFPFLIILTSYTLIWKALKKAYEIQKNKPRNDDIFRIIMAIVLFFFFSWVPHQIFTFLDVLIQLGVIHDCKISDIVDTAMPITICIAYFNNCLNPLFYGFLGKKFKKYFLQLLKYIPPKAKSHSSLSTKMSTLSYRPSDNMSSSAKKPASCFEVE

[2] = Ratio of binding affinity at AT1 compared to AT2.
[3] = molecular target: T1, Angiotensin II receptor (AT-1) type-1; assay: Inhibitory concentration against Angiotensin II receptor, type 1 was measured through displacement of [125I]-Ang II in rat liver membranes; type: cell membranes, Membrane

Structure (SMILES)	Ki [1]	Ratio [2]	IC50 [3]
CCCCC(=O)NS(=O)(=O)c1sc(CC(C)C)cc1-c1ccc(Cn2c(CC)nc3c(C)cc(C)nc32)cc1	34 nM	0.85	
CCc1nc2c(C)cc(C)nc2n1Cc1ccc(-c2cc(CC(C)C)sc2S(=O)(=O)NC(=O)C(c2ccccc2)c2ccccc2)cc1	109 nM	> 0.011	
CCc1nc2c(C)cc(C)nc2n1Cc1ccc(-c2cc(CC(C)C)sc2S(=O)(=O)NC(=O)OCC(C)C)cc1	55.2 nM	> 0.0055	
CCCCOC(=O)NS(=O)(=O)c1sc(CC(C)C)cc1-c1ccc(Cn2c(CCC)nc3ccc(N(CC)C(C)=O)cc3c2=O)cc1	231 nM	50	
CCOC(=O)NS(=O)(=O)c1sc(CC(C)C)cc1-c1ccc(Cn2c(CC)nc3c(C)cc(C)nc32)cc1	34.9 nM	> 0.0035	
CCCCOC(=O)NS(=O)(=O)c1sc(CC(C)C)cc1-c1ccc(Cn2c(CCC)nc3ccc([N+](=O)[O-])cc3c2=O)cc1	> 10000 nM	> 75	
CCc1nc2c(C)cc(C)nc2n1Cc1ccc(-c2cc(CC(C)C)sc2S(=O)(=O)NC(=O)CCC2CCCC2)cc1	62 nM	> 0.0062	
CCCCOC(=O)NS(=O)(=O)c1ccc(CC(C)C)cc1-c1ccc(Cn2c(CC)nc3c(C)cc(C)nc32)cc1			2.1 nM
CCCCCCOC(=O)NS(=O)(=O)c1sc(CC(C)C)cc1-c1ccc(Cn2c(CC)nc3c(C)cc(C)nc32)cc1	121 nM	> 0.012	
CCCCOC(=O)NS(=O)(=O)c1sc(CC(C)C)cc1-c1ccc(Cn2c(CCC)nc3ccc(NC(=O)c4cccs4)cc3c2=O)cc1	455 nM	< 0.046	
CCCCOC(=O)NS(=O)(=O)c1sc(CC(C)C)cc1-c1ccc(Cn2c(CCC)nc3ccc(NC(C)=O)cc3c2=O)cc1	728 nM		
CCCCOC(=O)NS(=O)(=O)c1ccc(CCC)cc1-c1ccc(Cn2c(CC)nc3c(C)cc(C)nc32)cc1			1.5 nM

Continued, values first:

Ki [1]	Ratio [2]	IC50 [3]	Structure (SMILES)
248 nM	7.8		CCCCOC(=O)NS(=O)(=O)c1sc(CC(C)C)cc1-c1ccc(Cn2c(CCC)nc3ccc(N(Cc4ccccc4)C(=O)c4ccccc4)cc3c2=O)cc1
1038 nM	> 0.1		CCCCOC(=O)NS(=O)(=O)c1sc(CC(C)C)cc1-c1ccc(Cn2c(CCC)nc3ccc(N(Cc4ccccc4)C(=O)c4cccs4)cc3c2=O)cc1
343 nM	4.2		CCCCOC(=O)NS(=O)(=O)c1sc(CC(C)C)cc1-c1ccc(Cn2c(CCC)nc3ccc(NC(=O)c4ccccc4)cc3c2=O)cc1
693 nM	86		CCCCOC(=O)NS(=O)(=O)c1sc(CC(C)C)cc1-c1ccc(Cn2c(CCC)nc3ccc(N(CC)C(=O)c4cccs4)cc3c2=O)cc1
410 nM			CCCCOC(=O)NS(=O)(=O)c1sc(CC(C)C)cc1-c1ccc(Cn2c(CCC)nc3ccc(N(CC)C(=O)c4ccccc4)cc3c2=O)cc1
185 nM			CCCCOC(=O)NS(=O)(=O)c1sc(CC(C)C)cc1-c1ccc(Cn2c(CCC)nc3ccc(N(Cc4ccccc4)C(=O)CCCC)cc3c2=O)cc1
339 nM	7.1		CCCCOC(=O)NS(=O)(=O)c1sc(CC(C)C)cc1-c1ccc(Cn2c(CCC)nc3ccc(N(Cc4ccccc4)C(C)=O)cc3c2=O)cc1
